The record followed here is ChEMBL document CHEMBL1201862, “PubChem BioAssay data set” (2004).

Calls of active or inactive are those of the source.

For orientation: CC50 means the concentration giving 50% cytotoxicity. For orientation: IC50 means the concentration that gives 50% inhibition. As usually defined, the EC50 is the concentration giving half of the maximal effect.

The target of assay [1] is Acyl-homoserine lactone acylase PvdQ (Pseudomonas aeruginosa (strain LESB58), UniProt Q9I194). Briefly: P. aeruginosa PvdQ acylase inhibitors, dose response, biochemical, fluorescence, plate reader and imaging, cherry-picks (AID 493231).
Assay [2] in a line: A Cell Based Secondary Assay To Explore Cytotoxicity of Compounds that Sensitize Mycobacterium Tuberculosis to Beta-Lactam Antibiotics. The assay is classed as functional.
Assay [3] can be described thus: HEp-2 cell cytotoxicity, dose response, cytotoxicity control for RSV inhibitor project, HTS (AID 2410). The assay is classed as functional. The note with it: human respiratory syncytial virus.
Assay [4] can be described thus: cells.
Assay [5] has as its target Cytochrome P450 2C9 (Homo sapiens, UniProt P11712). The note with it: Potency.
Assay [6] has as its target Cytochrome P450 2D6 (Homo sapiens, UniProt P10635). Briefly: qHTS Assay for Inhibitors and Substrates of Cytochrome P450 2D6. [Related pubchem assays: 410 ]. The assay is classed as ADME. To be noted: read-out: Potency.
Assay [7] relates to HeLa. Briefly: HeLa cell cytotoxicity, dose response, cytotoxicity control, 24 h, cherry-picked samples (AID 504726).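 Further: potency for cytotoxicity as loss of luminescence signal.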 The assay is classed as functional, cell-based. To be noted: Homo sapiens.
The subject of assay [8] is BJ. Briefly: cytotoxicity toward BJ-TERT-LT-ST fibroblasts, dose response, cell-based, RAS-independent, luminescence (AID 1935).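 Further: BJ fibroblasts immortalized with TERT plus LT and ST oncogenes.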 To be noted: Homo sapiens. The assay is classed as functional.
Assay [9] deals with BJ. Briefly: cells. It is filed as functional, cell-based. To be noted: Homo sapiens.
Assay [10] can be described thus: cytotoxicity toward DRD oncogenic fibroblasts, dose response, cell-based, non-viral oncogenic, luminescence (AID 1934). It is filed as functional. To be noted: Homo sapiens.
In assay [11] the test system is BJ. Briefly: cytotoxicity toward BJ-TERT fibroblasts, dose response, cell-based, RAS-independent, luminescence (AID 1933). The assay is classed as functional. To be noted: Homo sapiens.
Assay [12] has as its system INS1. Briefly: beta cell apoptosis inhibitors, cytokine rescue, dose response, luminescence, retest (AID 449756).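 Further: cell death triggered by IL-1 beta plus TNF-alpha plus IFN-gamma mixture; protective hits raise ATP signal compared with cytokine alone wells.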 It is filed as functional, cell-based. To be noted: Rattus norvegicus.
Assay [13] deals with Oxytocin receptor (Homo sapiens, UniProt P30559). Briefly: Fluorescence-based cell-based high throughput dose response assay for agonists of the Oxytocin Receptor (OXTR). [Related pubchem assays: 2435 (Primary screen (OXTR agonists in singlicate)), 434991 (Counterscreen (V1R agonists in triplicate)), 2482 (Summary (OXTR agonists)), 434963 (Confirmation screen (OXTR agonists in triplicate))]. It is filed as functional. (The purpose of a counterscreen is to sort out artefacts and off-target activity.)
Chain of Oxytocin receptor (P30559 whole entry): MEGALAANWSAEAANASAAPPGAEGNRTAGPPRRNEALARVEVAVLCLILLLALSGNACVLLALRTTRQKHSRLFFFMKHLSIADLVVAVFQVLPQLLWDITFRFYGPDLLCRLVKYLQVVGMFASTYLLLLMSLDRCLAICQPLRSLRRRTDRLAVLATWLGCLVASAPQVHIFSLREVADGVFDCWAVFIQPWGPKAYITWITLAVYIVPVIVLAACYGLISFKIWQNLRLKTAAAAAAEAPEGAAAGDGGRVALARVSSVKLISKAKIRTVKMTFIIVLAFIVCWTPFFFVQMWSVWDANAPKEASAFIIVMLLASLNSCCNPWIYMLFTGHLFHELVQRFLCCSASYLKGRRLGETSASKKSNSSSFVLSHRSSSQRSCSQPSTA

In assay [14] the target is Vasopressin V1a receptor (Homo sapiens, UniProt P37288). Briefly: Counterscreen for Oxytocin Receptor (OXTR) agonists: Fluorescence-based cell-based high throughput dose response assay to identify agonists of the vasopressin 1 receptor (V1R). [Related pubchem assays: 2435 (Primary screen (OXTR agonists in singlicate)), 434991 (Counterscreen (V1R agonists in triplicate)), 2482 (Summary (OXTR agonists)) …. The assay is classed as functional.
Chain of Vasopressin V1a receptor (P37288 whole entry): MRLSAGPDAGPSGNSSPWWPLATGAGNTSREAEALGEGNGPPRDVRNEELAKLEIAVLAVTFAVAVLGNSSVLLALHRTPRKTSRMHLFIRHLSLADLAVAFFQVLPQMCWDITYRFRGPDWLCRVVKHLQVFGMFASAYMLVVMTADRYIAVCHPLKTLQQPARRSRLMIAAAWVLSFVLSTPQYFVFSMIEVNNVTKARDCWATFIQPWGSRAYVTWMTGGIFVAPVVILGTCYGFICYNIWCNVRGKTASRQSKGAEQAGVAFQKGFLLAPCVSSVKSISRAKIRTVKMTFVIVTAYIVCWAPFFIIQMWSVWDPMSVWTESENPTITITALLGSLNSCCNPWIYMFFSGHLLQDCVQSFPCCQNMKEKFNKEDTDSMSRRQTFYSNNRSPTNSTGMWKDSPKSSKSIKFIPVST

Assay [15] deals with Streptococcus. Briefly: Group A Streptococcus viability loss, dose response, counter-screen for streptokinase expression inhibitor project, luminescence, BacTiterGlo (AID 1915).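 Further: potency for reduction of bacterial viability or growth.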 The assay is classed as functional, organism-based.
Assay [16] deals with Streptococcus sp. 'group A'. Briefly: growth inhibition of control SK(-) GAS strain, dose response, counter-screen for streptokinase expression inhibitor project, luminescence, kanamycin, BacTiterGlo, confirmation (AID 1900). The assay is classed as functional, organism-based.
Assay [17] in a line: cells. This is another data set of the same source.
A short description of assay [18]: THP-1 cell cytotoxicity, dose response, cytotoxicity control for non-replicating M. tuberculosis project (AID 489025). It is filed as functional.
Assay [19] in a line: cytotoxicity toward NIH3T3 fibroblasts, dose response, counter-screen, cell-based, ATP luminescence, mouse fibroblasts (AID 2010).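 Further: cells exposed to compound for about 90 hours before reading.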 It is filed as functional.
Assay [20] can be described thus: inhibitors of intracellular T. cruzi replication, confirmation, NIH3T3 host cells, beta-gal luminescence (AID 2044).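 Further: intracellular parasites grown in NIH/3T3 mouse fibroblasts as host cells; luminescent beta-galactosidase reporter signal from transgenic T. cruzi replicating inside host cells; inhibitors lower the luminescence signal.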 It is filed as functional, cell-based.
Assay [21] can be described thus: cells. The assay is classed as functional.
Assay [22] in a line: HepG2 cell cytotoxicity, dose response, cytotoxicity control for non-replicating M. tuberculosis project (AID 489018). The assay is classed as functional. To be noted: Mycobacterium tuberculosis.
Assay [23] in a line: Luminescence-based dose response cell-based high throughput screening assay for cytotoxic compounds using the IEC-6 intestinal epithelial cell line. [Related pubchem assays: 1858 (Summary AID.), 1825 (Counterscreen.), 1907 (Confirmation screen.)]. The assay is classed as functional.
Assay [24] is described as follows: Vero E6 cell cytotoxicity, dose response, cytotoxicity control for non-replicating M. tuberculosis project, secondary assay (AID 492998). It is filed as functional, VeroE6. The note with it: Vero C1008.
Assay [25] has as its target T1, Voltage-gated N-type calcium channel alpha-1B subunit/Amyloid beta A4 precursor protein-binding family A member 1 (Homo sapiens, UniProt Q00975+Q02410). The assay is classed as protein assay.
A short description of assay [26]: growth suppression of PTEN-null colon cells, dose response, cell-based, HCT116 PTEN knockout (AID 1047).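 Further: HCT116 colon tumor cells with PTEN knocked out; cells exposed to compound for 60 hours before readout; potency for loss of cell viability measured by luminescence.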 It is filed as functional.
Assay [27] deals with DNA dC->dU-editing enzyme APOBEC-3G (Homo sapiens, UniProt Q9HC16). Briefly: Dose Response confirmation of small molecule APOBEC3G DNA Deaminase Inhibitors via a fluorescence-based single-stranded DNA deaminase assay. [Related pubchem assays (depositor defined):AID493012, AID493028]. The assay is classed as functional.
Assay [28] deals with Eukaryotic translation initiation factor 4E (Mus musculus, UniProt P63073). Briefly: eIF4E–eIF4G protein interaction inhibitors, dose response, biochemical, TR-FRET (AID 855).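 Further: potency for disrupting eIF4E binding to eIF4GI seen as loss of FRET.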 It is filed as functional.
Chain of Eukaryotic translation initiation factor 4E (P63073 whole entry): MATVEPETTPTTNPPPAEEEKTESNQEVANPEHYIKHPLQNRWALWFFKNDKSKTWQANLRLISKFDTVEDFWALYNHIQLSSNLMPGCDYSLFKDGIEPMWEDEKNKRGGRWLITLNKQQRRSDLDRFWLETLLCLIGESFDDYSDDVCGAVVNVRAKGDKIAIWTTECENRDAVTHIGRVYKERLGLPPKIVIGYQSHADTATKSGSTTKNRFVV
Assay [29] concerns the target DNA dC->dU-editing enzyme APOBEC-3A (Homo sapiens, UniProt P31941). Briefly: APOBEC3A DNA deaminase inhibitors, dose response, biochemical (AID 504722). The assay is classed as functional.
Assay [30] addresses T1, Voltage-gated N-type calcium channel alpha-1B subunit/Amyloid beta A4 precursor protein-binding family A member 1. It is filed as protein assay. This is another data set of the same source.

T1 sequence (Q00975 whole entry): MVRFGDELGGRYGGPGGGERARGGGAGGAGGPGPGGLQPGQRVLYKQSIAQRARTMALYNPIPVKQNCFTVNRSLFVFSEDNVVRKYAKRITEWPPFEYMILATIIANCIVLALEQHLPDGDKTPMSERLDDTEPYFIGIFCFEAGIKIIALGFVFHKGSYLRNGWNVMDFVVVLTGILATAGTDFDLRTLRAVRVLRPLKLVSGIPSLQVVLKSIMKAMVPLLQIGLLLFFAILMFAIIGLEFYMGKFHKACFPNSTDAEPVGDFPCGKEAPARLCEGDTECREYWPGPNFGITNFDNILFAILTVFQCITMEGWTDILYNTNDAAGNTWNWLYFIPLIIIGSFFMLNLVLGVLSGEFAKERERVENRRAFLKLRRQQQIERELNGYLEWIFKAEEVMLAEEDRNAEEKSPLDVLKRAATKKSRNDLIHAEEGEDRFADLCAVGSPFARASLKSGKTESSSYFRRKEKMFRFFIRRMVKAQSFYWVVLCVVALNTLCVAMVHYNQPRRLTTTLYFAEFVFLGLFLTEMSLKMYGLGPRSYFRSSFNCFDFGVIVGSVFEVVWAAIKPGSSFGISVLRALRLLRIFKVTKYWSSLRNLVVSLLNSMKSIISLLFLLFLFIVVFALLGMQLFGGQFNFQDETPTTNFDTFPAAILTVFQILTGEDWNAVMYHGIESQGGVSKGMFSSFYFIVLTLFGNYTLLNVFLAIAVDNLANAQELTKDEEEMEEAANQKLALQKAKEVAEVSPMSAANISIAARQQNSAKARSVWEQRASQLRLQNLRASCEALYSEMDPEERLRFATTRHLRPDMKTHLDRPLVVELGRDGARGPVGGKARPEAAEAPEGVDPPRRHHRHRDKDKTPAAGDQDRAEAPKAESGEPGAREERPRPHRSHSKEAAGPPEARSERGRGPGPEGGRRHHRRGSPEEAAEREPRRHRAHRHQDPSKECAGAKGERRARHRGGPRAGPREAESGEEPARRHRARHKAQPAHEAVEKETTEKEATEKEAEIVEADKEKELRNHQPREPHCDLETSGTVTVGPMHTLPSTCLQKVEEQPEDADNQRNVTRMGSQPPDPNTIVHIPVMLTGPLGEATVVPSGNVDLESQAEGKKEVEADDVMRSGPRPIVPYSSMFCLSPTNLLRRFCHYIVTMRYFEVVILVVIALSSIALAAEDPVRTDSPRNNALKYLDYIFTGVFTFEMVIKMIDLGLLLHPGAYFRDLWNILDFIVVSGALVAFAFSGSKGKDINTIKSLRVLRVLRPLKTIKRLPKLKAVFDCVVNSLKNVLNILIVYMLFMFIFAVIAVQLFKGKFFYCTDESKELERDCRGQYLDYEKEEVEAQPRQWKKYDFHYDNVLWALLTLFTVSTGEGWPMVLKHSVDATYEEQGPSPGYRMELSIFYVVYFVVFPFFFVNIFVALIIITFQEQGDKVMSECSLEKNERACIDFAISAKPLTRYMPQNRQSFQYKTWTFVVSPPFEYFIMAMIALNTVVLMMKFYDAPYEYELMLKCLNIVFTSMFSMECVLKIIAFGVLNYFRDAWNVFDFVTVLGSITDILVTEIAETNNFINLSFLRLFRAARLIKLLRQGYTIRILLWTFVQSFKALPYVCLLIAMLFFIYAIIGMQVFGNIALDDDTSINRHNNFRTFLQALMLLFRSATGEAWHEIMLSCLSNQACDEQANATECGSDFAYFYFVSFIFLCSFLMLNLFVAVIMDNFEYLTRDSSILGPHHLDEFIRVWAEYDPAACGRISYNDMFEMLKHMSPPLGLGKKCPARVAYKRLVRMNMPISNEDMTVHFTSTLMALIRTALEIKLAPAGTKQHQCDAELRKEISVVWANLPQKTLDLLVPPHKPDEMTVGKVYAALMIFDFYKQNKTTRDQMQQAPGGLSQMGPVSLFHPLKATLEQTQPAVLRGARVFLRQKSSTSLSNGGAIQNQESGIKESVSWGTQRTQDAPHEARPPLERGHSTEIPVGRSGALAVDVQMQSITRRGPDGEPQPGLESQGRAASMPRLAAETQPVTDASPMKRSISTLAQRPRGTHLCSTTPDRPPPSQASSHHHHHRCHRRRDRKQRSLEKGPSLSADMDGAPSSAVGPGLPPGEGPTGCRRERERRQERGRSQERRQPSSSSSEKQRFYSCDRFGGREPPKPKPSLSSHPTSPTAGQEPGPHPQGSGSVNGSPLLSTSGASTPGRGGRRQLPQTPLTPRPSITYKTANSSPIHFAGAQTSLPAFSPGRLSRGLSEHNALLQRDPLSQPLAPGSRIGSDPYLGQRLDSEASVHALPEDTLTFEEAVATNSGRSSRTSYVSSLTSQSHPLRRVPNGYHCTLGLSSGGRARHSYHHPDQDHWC
T1 sequence (Q02410 whole entry): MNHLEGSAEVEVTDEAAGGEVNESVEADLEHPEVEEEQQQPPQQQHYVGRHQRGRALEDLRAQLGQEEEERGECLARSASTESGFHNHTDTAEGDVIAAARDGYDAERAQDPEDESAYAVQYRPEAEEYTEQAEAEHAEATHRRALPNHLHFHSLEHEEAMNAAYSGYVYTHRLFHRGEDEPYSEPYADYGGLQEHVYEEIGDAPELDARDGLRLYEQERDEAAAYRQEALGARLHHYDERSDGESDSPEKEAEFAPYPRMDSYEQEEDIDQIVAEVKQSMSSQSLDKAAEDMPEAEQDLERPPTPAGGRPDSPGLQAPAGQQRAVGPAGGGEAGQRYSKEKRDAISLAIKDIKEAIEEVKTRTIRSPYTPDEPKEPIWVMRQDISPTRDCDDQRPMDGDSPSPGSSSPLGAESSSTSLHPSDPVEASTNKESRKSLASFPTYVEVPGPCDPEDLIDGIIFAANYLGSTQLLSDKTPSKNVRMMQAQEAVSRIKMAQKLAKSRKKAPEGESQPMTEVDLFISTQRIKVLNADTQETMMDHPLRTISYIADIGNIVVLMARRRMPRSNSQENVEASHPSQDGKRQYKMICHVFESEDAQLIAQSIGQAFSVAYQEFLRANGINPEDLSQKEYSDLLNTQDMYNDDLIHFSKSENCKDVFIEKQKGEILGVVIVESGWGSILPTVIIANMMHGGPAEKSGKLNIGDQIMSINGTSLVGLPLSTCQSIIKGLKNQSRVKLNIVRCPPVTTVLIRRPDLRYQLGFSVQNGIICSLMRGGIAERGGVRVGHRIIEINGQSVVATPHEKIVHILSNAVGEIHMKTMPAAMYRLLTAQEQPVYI
Chain of Cytochrome P450 2C9 (P11712 whole entry): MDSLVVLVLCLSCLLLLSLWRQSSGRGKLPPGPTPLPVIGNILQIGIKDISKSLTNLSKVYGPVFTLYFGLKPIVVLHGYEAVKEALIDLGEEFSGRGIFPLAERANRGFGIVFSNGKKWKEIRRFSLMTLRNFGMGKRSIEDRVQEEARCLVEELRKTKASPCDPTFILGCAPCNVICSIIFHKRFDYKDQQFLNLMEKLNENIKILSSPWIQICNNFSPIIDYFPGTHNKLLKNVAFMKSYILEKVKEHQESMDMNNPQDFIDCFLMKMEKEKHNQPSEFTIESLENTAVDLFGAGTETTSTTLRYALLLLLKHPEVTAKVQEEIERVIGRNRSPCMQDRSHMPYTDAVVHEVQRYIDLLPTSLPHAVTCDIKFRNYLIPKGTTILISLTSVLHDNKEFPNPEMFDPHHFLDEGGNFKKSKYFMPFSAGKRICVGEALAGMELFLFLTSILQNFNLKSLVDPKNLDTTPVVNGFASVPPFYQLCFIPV
Chain of DNA dC->dU-editing enzyme APOBEC-3A (P31941 whole entry): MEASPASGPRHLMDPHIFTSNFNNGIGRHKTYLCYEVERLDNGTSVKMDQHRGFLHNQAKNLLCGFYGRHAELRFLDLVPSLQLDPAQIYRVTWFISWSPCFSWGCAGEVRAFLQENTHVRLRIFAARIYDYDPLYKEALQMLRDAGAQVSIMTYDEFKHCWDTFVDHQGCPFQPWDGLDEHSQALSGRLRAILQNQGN

Consider `Cc1ccc(C)c(S(=O)(=O)NC2CCSC2=O)c1` (centres undefined), for which the AC50 in assay [1] is 3.22 µM (active).
On to `COc1ccc(Cn2c(=O)[nH]c3cc(C(=O)N4CCN(c5ccccc5F)CC4)ccc3c2=O)cc1`, for which, in [2], the CC50 is > 40 µM (active).
As to `O=C(Cc1cccc2ccccc12)Nc1ccccc1C(=O)O`, the CC50 in assay [3] was 28.8 µM (active). Further, the half-inhibitory concentration (IC50) in assay [4] is 24.4 µM (active).
`CC(=O)[C@@H]1[C@H]2[C@@H](C(=O)[C@H]3OC[C@H]2O3)[C@@H]2C=Cc3ccccc3N12`: the AC50 in [5] is 31.6 µM (inconclusive); in assay [6], 39.8 µM (inconclusive).
`COc1ccc(-c2cc(=O)c3ccc(O)cc3o2)cc1`: the AC50 in assay [5] is 3.98 µM (inconclusive).
`C/C(=N\Nc1nc2c(s1)CCCC2)c1ccc(Cl)cc1`: in assay [7], the AC50 was 83.5 µM (active).
For `COc1cccc(/C=N/Nc2snc(SC)c2C#N)c1O`, the EC50 is > 150 µM (not active) in assay [8]; 40.4 µM (active) in assay [9]; 48.3 µM (active) in assay [10]; 27 µM (active) in [11]; > 29.9 µM (not active) in assay [13]; > 29.9 µM (not active) in assay [14]. Also, in [12], the AC50 was 3.96 µM (active).
On to `C/C(=N\NC(=O)c1ccc(Cl)cc1)c1ccccn1`, for which the EC50 in [15] was 7.47 µM (active); in assay [16], 2.33 µM (active); in [17] it was 0.064 µM (active); in [19], 1.04 µM (active); in [20], < 0.1 µM (active). In addition, the CC50 was 0.551 µM (active) in [18], 6.87 µM (active) in assay [22] and 1.52 µM (active) in [24]. The half-maximal inhibitory concentration (IC50) in [21] was 0.8 µM (active); in [23], 0.546 µM (active). Further, the AC50 in assay [12] was 0.34 µM (active).
As to `Cc1cc(Cl)ccc1/N=c1\ssnc1Cl`, the IC50 in assay [25] was 15.4 µM (active); in [27], 11.9 µM (active); in assay [28], > 64 µM (inactive); in assay [29], > 100 µM (inactive); in assay [30], 2.3 µM (active). Moreover, the EC50 is 49 µM (active) in [26], > 29.9 µM (not active) in assay [13] and > 29.9 µM (not active) in assay [14].
